Key:
Type in all cases: physicochemical
[1] = Solubility of the crystalline form in aqueous media, simulated fluids and organic solvents; conditions: in the presence of surfactants (e.g., Tween-80, sodium dodecyl sulfate, dioctyl sulfosuccinate, Pluronic F68) and cyclodextrins
Protocol: Solubility in simulated gastric fluid (SGF), fasted state simulated intestinal fluid (FaSSIF), and fed state simulated intestinal fluid (FeSSIF) was 0.019 mg/ml, 0.006 mg/mL, and 0.022 mg/mL, respectively. Solubility increased 50-100-fold in the presence of surfactants (e.g., Tween-80, sodium dodecyl sulfate, dioctyl sulfosuccinate, or Pluronic F68) and cyclodextrins; however it was still rather low.

[2] = Preliminary solid state stability, UPLC analysis after storage
Protocol: (§1) Stability: Preliminary forced degradation study of the crystalline form of the free base of the compound of Formula I in acidic, basic, oxidative, and photolytic stress conditions was conducted to investigate the viability of the crystalline form in various stress conditions. Since the solubility of the compound of Formula I was low in the standard solvent ethanol, ethanol was replaced by N-methyl-2-pyrrolidone (NMP).
A defined amount of the crystalline form of the free base of the compound of Formula I (0.2-0.8 mg) was weighed into a 1.8 mL HPLC vial and stored open (75% RH) or closed (ambient) at the temperature and the time indicated. After incubation, compound was dissolved in 1-1.5 mL NMP to a final concentration of 0.2-0.5 mg/mL and submitted to UPLC analysis (254 nm).

[3] = Preliminary forced degradation study (acidic, basic, oxidative, photolytic stress) and excipient compatibility
Protocol: as §1
The crystalline form of the free base of the compound of Formula I was stable for up to 8 days in solid state at 80° C. and in solution at pH 3 to pH 7 at RT. […] The crystalline form was stable after exposure to light in solid state.

[4] = Stability in suspension vehicle and parenteral formulation; conditions: 0.5% HPC/1% Tween 80, up to 5 weeks at RT
Protocol: For parenteral administration, a 30% Kleptose formulation (1.5 mg/ml, physiologic osmolality, pH 6.2), with a stability of at least 4 weeks at 40° C. was developed.

[5] = Thermodynamic stability of the crystalline form; conditions: at least between 20° C. and 60° C.
From the text: The XRPD pattern can be obtained by following protocols known in the field.

- Solubility increase [1]: 50-100 fold
- Degradation products ([2]; solid state at various temperatures): < 0.5%
- UPLC analysis (Area % main peak) ([2]; solid state, 4 w, 4° C.): 100 Area %
- UPLC analysis (Area % main peak) ([2]; solid state, 4 w, 40° C.): 100 Area %
- UPLC analysis (Area % main peak) ([2]; solid state, 4 w, 40° C., 75% RH): 100 Area %
- UPLC analysis (Area % main peak) ([2]; solid state, 4 w, 60° C.): 100 Area %
- UPLC analysis (Area % main peak) ([2]; solid state, 4 w, RT): 100 Area %
- Time stable in solid state ([2]; solid state, 40-60° C.): at least 4 weeks
- UPLC analysis (Area % main peak) ([2]; solid state, 1 h, 80° C.): 100 Area %
- UPLC analysis (Area % main peak) ([2]; solid state, 1 d, 80° C.): 100 Area %
- UPLC analysis (Area % main peak) ([2]; solid state, 8 d, 80° C.): 100 Area %
- Excipient compatibility (CompaS assay) [3]: compatible with almost all excipients
- Stability towards oxidation ([3]; 1 day): stable
- Stability towards daylight ([3]; in solution): stable
- Stability in solution ([3]; in solution at pH 3 to pH 7 at RT, up to 8 days): stable
- Stability in solution at higher or lower pH ([3]; in solution, pH higher than 7 or lower than 3): degradation was observed
- Stability in the Suntest ([3]; in solution, time dependent): moderately stable to unstable
- Stability towards oxidation ([3]; prolonged exposure): some sensitivity
- Stability after exposure to light ([3]; solid state): stable
- Stability in solid state ([3]; solid state at 80° C., up to 8 days): stable
- Stability in suspension vehicle [4]: stable
- Thermodynamic stability [5]: thermodynamically stable
SMILES: Cn1ncc(C(=O)N2CCOCC2)c1C(=O)Nc1ccn2nc(-c3ccccc3)nc2c1 [1-methyl-4-(morpholine-4-carbonyl)-N-(2-phenyl[1,2,4]triazolo[1,5-a]pyridin-7-yl)-1H-pyrazole-5-carboxamide]
- Particle growth and hydrate formation in suspension vehicle [4]: only minor particle growth and no hydrate formation

Source: patent US12544364B2, “Use of a phosphodiesterase 10 inhibitor for the treatment of tourette syndrome” (Noema Pharma AG, priority 2020, dated 2026)
